Each structure is given as a SMILES string. Structures can show the parent of a compound that is named as a salt. Where two headings read alike, the source gives them in different places.

The values below come from patent US20210330611A1, “THERAPY FOR NEUROLOGICAL DISEASES/DISORDERS” (priority 2020, published 2021).

In series [1] the test system is fibrin-induced microglia activation. As to the kind of experiment: Image-based assay of fibrin-induced microglia activation (HTS and dose response). It counts as cell-based, rat. The settings on record: for IC50 / inhibition at 10 µM: Rattus norvegicus, Microglia; for inhibition at 10 µM: read-out: Fibrin % inhibition.
In series [2] the test system is fibrin- and LPS-induced microglia activation. As to the kind of experiment: cells. The settings on record: for inhibition at 10 µM: Rattus norvegicus. It counts as cell-based, rat.
Series [3] can be described thus: in vitro. The settings on record: rat, Cell Toxicity IC50 (uM) [cFib assay].
Series [4] relates to primary rat microglia. The settings on record: rat.
Series [5] relates to LPS-induced microglia activation. As to the kind of experiment: Image-based assay of LPS-induced microglia activation (HTS and dose response). It counts as cell-based, rat. The settings on record: Rattus norvegicus, Microglia; for inhibition at 10 µM: read-out: LPS % inhibition.
Series [6] relates to primary rat microglia. The settings on record: rat. This is another data set of the same source.
Series [7] is described as follows: in vitro. The settings on record: rat.
[8] abbreviates: 48 h, Table 1, dose response 0.001-20 μM, triplicates, primary rat microglia, 48 h, read-out: Fibrin IC50.
[9] abbreviates: dose response, fibrin-induced microglia activation, read-out: Fibrin IC50.
Where [10] appears, read: fibrin-induced microglia activation, dose response, read-out: Fibrin IC50 (uM) (Suppl. Table 7).
Where [11] appears, read: primary microglia HTS, fibrin stimulation, increased cell size (>800 μm^2) as marker of activation.
Setting [12] is: HTS of 1907 compounds, quadrant by fibrin and LPS inhibition.
The mark [13] stands for this setting: Microglia, HTS hit classification, read-out: Hit.
Setting [14] is: hit classification in microglia HTS, read-out: Cherry-picked Hit (Suppl. Table 7).
Where [15] appears, read: quadrant by fibrin and LPS inhibition in HTS of 1907 compounds.
Setting [16] is: 48 h, Table 1, dose response 0.001-20 μM, triplicates, primary rat microglia, 48 h, read-out: LPS IC50.
[17] abbreviates: 48 h, primary microglia HTS, LPS stimulation, increased cell size (>800 μm^2) as marker of activation.
The mark [18] stands for this setting: LPS-induced microglia activation, dose response, read-out: LPS IC50 (uM) (Suppl. Table 7).
Setting [19] is: dose response, LPS-induced microglia activation, read-out: LPS IC50.
Where [20] appears, read: read-out: Fibrin IC50 (uM) (Suppl. Table 7).
[21] abbreviates: Microglia, read-out: Cherry-picked Hit (Suppl. Table 7).
Setting [22] is: read-out: LPS IC50 (uM) (Suppl. Table 7).
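Throughout, for Fibrin % cell toxicity: share of dead cells sized under 150 µm2 at 10 µM in fibrin-stimulated microglia HTS.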

Regarding `C=C(CC)C(=O)c1ccc(OCC(=O)O)c(Cl)c1Cl` [Ethacrynic acid, reference compound], the IC50 in series [1] (setting [8]), in series [1] (setting [9]), in series [1] (setting [10]), in series [3] (cFib assay), in series [5] (setting [16]) and in series [5] (setting [18]) was > 20 µM in each case. Further, the IC50 in series [5] (setting [19]) and in series [7] was > 20 µM in each case. The inhibition at 10 µM in series [1] (setting [11]) is 57%; in series [2] (setting [13]), > 50%; in series [2] (setting [14]), > 50%; in series [5] (setting [17]), 17%. Besides, the “Quadrant (FIG. 5b)” value in series [2] (setting [12]) is reported as “Q3”; in series [2] (Table 1, screen at 10 μM) it was “Q3”; in series [2] (setting [15]) it was “Q3”. Besides, the “Fibrin % cell toxicity” value in series [4] worked out at 2%. The “LPS % cell toxicity” value in series [6] was determined as 1%.

Regarding `CCN(CC)CCNc1ccc(CO)c2sc3ccccc3c(=O)c12` [Hycanthone, reference compound], the IC50 in series [1] (setting [8]) is 1 µM; in series [1] (Table 7, read-out: fib_IC50), 0.619 µM; in series [1] (setting [9]), 1 µM; in series [1] (setting [10]), 1 µM; in series [3], > 20 µM; in series [5] (setting [16]) it was 1 µM. Further, the IC50 stood at 1 µM in series [5] (setting [18]); 0.354 µM in series [5] (Table 7, read-out: LPS_IC50); 1 µM in series [5] (setting [19]); 11 µM in series [7]. The inhibition at 10 µM in series [1] (setting [11]) was 103%; in series [2] (setting [13]), > 50%; in series [2] (setting [14]), > 50%; in series [5] (setting [17]), 71%. Moreover, the “Quadrant (FIG. 5b)” value in series [2] (setting [12]) is on record as “Q2”; in series [2] (Table 1, screen at 10 μM), “Q2”; in series [2] (setting [15]), “Q2”. Moreover, in series [2] (Table 7, fib = fibrin, LPS, tox = toxicity), the Activity result is reported as “fib/LPS”. Moreover, the “Fibrin % cell toxicity” value in series [4] worked out at 2%. In addition, in series [6], the “LPS % cell toxicity” value came out at 2%.

As to `Cc1cccc(C(=O)O)c1O` [Hydroxytoluic acid, reference compound], the IC50 was 20 µM in series [1] (setting [8]); 20 µM in series [1] (setting [9]); 20 µM in series [1] (setting [10]); > 20 µM in series [3]; > 20 µM in series [5] (setting [16]); > 20 µM in series [5] (setting [18]). Further, the IC50 in series [5] (setting [19]) and in series [7] was > 20 µM in each case. Besides, the inhibition at 10 µM in series [1] (setting [11]) is 69%; in series [2] (setting [13]), > 50%; in series [2] (setting [14]) it was > 50%; in series [5] (setting [17]) it was 33%. For the same compound, the “Quadrant (FIG. 5b)” value in series [2] (setting [12]) is on record as “Q3”; in series [2] (Table 1, screen at 10 μM), “Q3”; in series [2] (setting [15]), “Q3”. Further, the “Fibrin % cell toxicity” value in series [4] came to 1%. Also, the “LPS % cell toxicity” value in series [6] came out at 0%.

Consider `C[C@@H](O)[C@H]1C(=O)N2C(C(=O)O)=C(SCCN=CN)C[C@H]12` [Imipenem, reference compound], for which the IC50 in series [1] (48 h, read-out: Fibrin IC50) is > 20 µM; in series [1] (read-out: Fibrin IC50 (uM)), > 20 µM; in series [1] (setting [20]) it was > 20 µM; in series [3] it was > 20 µM; in series [5] (48 h, read-out: LPS IC50) it was > 20 µM; in series [5] (read-out: LPS IC50 (uM)), > 20 µM. In addition, the IC50 in series [5] (setting [22]) and in series [7] was > 20 µM throughout. Further, the “Quadrant (FIG. 5b)” value in series [2] is reported as “Q3”. Also, the inhibition at 10 µM in series [2] (setting [21]) was > 50%; in series [2] (Microglia, read-out: Hit), > 50%. The “Fibrin % cell toxicity” value in series [4] is on record as 1%. Moreover, in series [6], the “LPS % cell toxicity” value was 0%.

For `COC(=O)Nc1nc2ccc(C(=O)c3ccccc3)cc2[nH]1` [Mebendazole, reference compound], in series [1], the “Fibrin Selectivity” value is listed as 31. Also, the “Fibrin Selectivity (LOG10)” value in series [1] is recorded as 1.49. For the same compound, the IC50 in series [1] (setting [8]) was 0.2 µM; in series [1] (Table 3, read-out: Fibrin IC50 (uM) (Suppl. Table 7)), 0.2 µM; in series [1] (setting [9]), 0.2 µM; in series [1] (setting [10]), 0.2 µM; in series [3], > 20 µM; in series [5] (setting [16]), 6 µM. In addition, the IC50 is 6 µM in series [5] (setting [18]); 6 µM in series [5] (Table 3, read-out: LPS IC50 (uM) (Suppl. Table 7)); 6 µM in series [5] (setting [19]); > 20 µM in series [7]. Moreover, the inhibition at 10 µM was 57% in series [1] (setting [11]); > 50% in series [2] (Microglia, Table 3, read-out: Cherry-picked Hit (Suppl. Table 7)); > 50% in series [2] (setting [13]); 72% in series [5] (setting [17]). Also, the “Quadrant (FIG. 5b)” value is “Q2” in series [2] (setting [12]); “Q2” in series [2] (Table 1, screen at 10 μM); “Q2” in series [2] (Table 3, screen at 10 μM); “Q2” in series [2] (setting [15]). In addition, in series [4], the “Fibrin % cell toxicity” value came out at 1%. Moreover, the “LPS % cell toxicity” value in series [6] is on record as 2%.

With `COc1ccc(O)cc1` [Mequinol, reference compound], the IC50 was > 20 µM in series [1] (48 h, read-out: Fibrin IC50); > 20 µM in series [1] (read-out: Fibrin IC50 (uM)); > 20 µM in series [1] (setting [20]); > 20 µM in series [3]; > 20 µM in series [5] (48 h, read-out: LPS IC50); > 20 µM in series [5] (read-out: LPS IC50 (uM)). The IC50 in series [5] (setting [22]) and in series [7] was > 20 µM throughout. The inhibition at 10 µM in series [1] was 98%; in series [2] (setting [21]), > 50%; in series [2] (Microglia, read-out: Hit) it was > 50%; in series [5] (48 h), 76%. The “Quadrant (FIG. 5b)” value in series [2] is reported as “Q2”. Besides, the “Fibrin % cell toxicity” value in series [4] amounted to 2%. Besides, the “LPS % cell toxicity” value in series [6] stood at 1%.

In the case of `COC(=O)C(c1ccccc1)C1CCCCN1` (stereo not shown) [Methylphenidate hydrochloride, reference compound], the IC50 in series [1] (setting [8]), in series [1] (setting [9]), in series [1] (setting [10]), in series [3] (cFib assay), in series [5] (setting [16]) and in series [5] (setting [18]) was > 20 µM in each case. In addition, the IC50 in series [5] (setting [19]) and in series [7] was > 20 µM in each case. The inhibition at 10 µM in series [1] (setting [11]) was 81%; in series [2] (setting [13]), > 50%; in series [2] (setting [14]), > 50%; in series [5] (setting [17]), 75%. The “Quadrant (FIG. 5b)” value was “Q2” in series [2] (setting [12]); “Q2” in series [2] (Table 1, screen at 10 μM); “Q2” in series [2] (setting [15]). Also, the “Fibrin % cell toxicity” value in series [4] is listed as 2%. Besides, the “LPS % cell toxicity” value in series [6] worked out at 1%.

In the case of `Clc1ccc(COC(Cn2ccnc2)c2ccc(Cl)cc2Cl)c(Cl)c1` (stereo not shown) [Miconazole nitrate, reference compound], the inhibition at 10 µM in series [1] was 53%; in series [2] (setting [21]) it was > 50%; in series [2] (Microglia, read-out: Hit), > 50%; in series [5] (48 h), 23%. Further, the “Quadrant (FIG. 5b)” value in series [2] was “Q3”. For the same compound, the IC50 in series [3] and in series [7] was > 20 µM in each case. Further, the “Fibrin % cell toxicity” value in series [4] was 1%. The “LPS % cell toxicity” value in series [6] was found to be 0%.

Consider `COc1ccc(OC)c(C(O)CNC(=O)CN)c1` (stereo not shown) [Midodrine hydrochloride, reference compound], for which the IC50 is > 20 µM in series [1] (48 h, read-out: Fibrin IC50); > 20 µM in series [1] (read-out: Fibrin IC50 (uM)); > 20 µM in series [1] (setting [20]); > 20 µM in series [3]; > 20 µM in series [5] (48 h, read-out: LPS IC50); > 20 µM in series [5] (read-out: LPS IC50 (uM)). The IC50 in series [5] (setting [22]) and in series [7] was > 20 µM throughout. In addition, the inhibition at 10 µM in series [1] is 95%; in series [2] (setting [21]), > 50%; in series [2] (Microglia, read-out: Hit), > 50%; in series [5] (48 h) it was 52%. Further, the “Quadrant (FIG. 5b)” value in series [2] is “Q2”. Moreover, in series [4], the “Fibrin % cell toxicity” value is listed as 3%. In addition, the “LPS % cell toxicity” value in series [6] came out at 1%.

With `CNCCC=C1c2ccccc2CCc2ccccc21` [Nortriptyline hydrochloride, reference compound], the IC50 in series [1] (48 h, read-out: Fibrin IC50) was 13 µM; in series [1] (read-out: Fibrin IC50 (uM)), 13 µM; in series [1] (setting [20]) it was 13 µM; in series [3] it was 20 µM; in series [5] (48 h, read-out: LPS IC50) it was 3 µM; in series [5] (read-out: LPS IC50 (uM)), 3 µM. Also, the IC50 in series [5] (setting [22]) was found to be 3 µM; in series [7], 10 µM. Besides, the inhibition at 10 µM in series [1] was 98%; in series [2] (setting [21]) it was > 50%; in series [2] (Microglia, read-out: Hit), > 50%; in series [5] (48 h), 114%. For the same compound, the “Quadrant (FIG. 5b)” value in series [2] was “Q2”. Besides, the “Fibrin % cell toxicity” value in series [4] was found to be 2%. In addition, the “LPS % cell toxicity” value in series [6] came out at 81%.
